Test results: the supplement of paper PMC5908809

Legend:
[1] = test system: NK-YS (IL-2 2.5 ng/mL); assay: percent inhibition of viability; higher = more inhibition; conditions: 72 h
[2] = test system: normal primary NK cells, pool 1 (3 donors) (IL-2 2.5 ng/mL); assay: as above; conditions: 72 h
[3] = test system: normal primary NK cells, pool 3 (3 donors) (IL-2 2.5 ng/mL); assay: as above; conditions: 72 h
[4] = test system: NKL (IL-2 2.5 ng/mL); assay: as above; conditions: 72 h
[5] = test system: DERL-7 (IL-2 2.5 ng/mL); assay: as above; conditions: 72 h
[6] = test system: IMC-1 (IL-2 20 ng/mL); assay: as above; conditions: 72 h
[7] = test system: normal primary NK cells, pool 2 (3 donors) (IL-2 2.5 ng/mL); assay: as above; conditions: 72 h
[8] = test system: KAI3 (IL-2 2.5 ng/mL); assay: as above; conditions: 72 h
[9] = test system: normal primary NK cells, pool 1 (3 donors), resting (IL-2 0 ng/mL); assay: as above; conditions: 72 h
[10] = test system: YT (IL-2 2.5 ng/mL); assay: as above; conditions: 72 h
[11] = test system: NK-92 (IL-2 2.5 ng/mL); assay: as above; conditions: 72 h
[12] = test system: SNK-6 (IL-2 2.5 ng/mL); assay: as above; conditions: 72 h
[13] = test system: KHYG-1 (IL-2 2.5 ng/mL); assay: as above; conditions: 72 h
[14] = test system: normal NK cells expanded with K562-aAPC; assay: drug sensitivity score (DSS) (DSS units); higher = more sensitive; extreme values may be limits of the assay; conditions: 72 h; IL-2 2.5 ng/mL
Method: (§1)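 Drug sensitivity and resistance testing on K562-aAPC-expanded normal NK cells: 5 concentrations (10-fold steps over a 10,000-fold range), 72 h at 37 °C, viability by CellTiter-Glo normalised to DMSO and benzethonium chloride controls; DSS from the fitted curve.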

[15] = test system: NK-YS (IL-2 2.5 ng/mL); assay: as above; conditions: 72 h
[16] = test system: normal primary NK cells, pool 1 (3 donors) (IL-2 2.5 ng/mL); assay: as above; conditions: 72 h
[17] = test system: normal primary NK cells, pool 3 (3 donors) (IL-2 2.5 ng/mL); assay: as above; conditions: 72 h
[18] = test system: NKL (IL-2 2.5 ng/mL); assay: as above; conditions: 72 h
[19] = test system: DERL-7 (IL-2 2.5 ng/mL); assay: as above; conditions: 72 h
[20] = test system: IMC-1 (IL-2 20 ng/mL); assay: as above; conditions: 72 h
[21] = test system: normal primary NK cells, pool 2 (3 donors) (IL-2 2.5 ng/mL); assay: as above; conditions: 72 h
[22] = test system: KAI3 (IL-2 2.5 ng/mL); assay: as above; conditions: 72 h
[23] = test system: normal primary NK cells, pool 1 (3 donors), resting (IL-2 0 ng/mL); assay: as above; conditions: 72 h
[24] = test system: YT (IL-2 2.5 ng/mL); assay: as above; conditions: 72 h
[25] = test system: NK-92 (IL-2 2.5 ng/mL); assay: as above; conditions: 72 h
[26] = test system: SNK-6 (IL-2 2.5 ng/mL); assay: as above; conditions: 72 h
[27] = test system: KHYG-1 (IL-2 2.5 ng/mL); assay: as above; conditions: 72 h
[28] = test system: normal NK cells expanded with K562-aAPC; assay: percent inhibition of viability; higher = more inhibition; conditions: 72 h, IL-2 2.5 ng/mL
Method: as §1

COc1cc2c(NC3CCN(C(C)C)CC3)nc(N3CCC(F)(F)CC3)nc2cc1OCCCN1CCCC1 [UNC0642] (max concentration tested 10000 nM)
percent inhibition of viability [%]
Conditions	1 nM	10 nM	100 nM	1000 nM	10000 nM
[1]	-3.38	-1.95	0.35	8.5	101
[2]	-1.76	13.1	19.9	18.1	101
[3]	-1.76	4.79	4.65	-5.45	100
[4]	-6.06	-13.9	-8.65	22.1	105
[5]	-0.28	1.37	-1.94	0.05	99.9
[6]	-11.9	-4.05	-6.38	8.61	100
[7]	-4.62	6.45	-2.04	-4.01	99.7
[8]	-0.96	1.92	10.1	48.5	103
[9]	9.19	22.7	14	28.9	98.6
[10]	-6.39	-3.26	-2.23	4.47	74.2
[11]	-11	-2.07	-11.4	3.52	49
[12]	-9.05	11.3	2.25	25.3	99.3
[13]	-4.39	-1.22	-6.31	6.97	28.1
[28]	-4.11	-7.96	-1.75	10.2	100

Conditions	drug sensitivity score
[14]	7.22
[15]	6.94
[16]	8.52
[17]	5.16
[18]	9.05
[19]	5.6
[20]	6.92
[21]	5.23
[22]	11.3
[23]	9.04
[24]	4.75
[25]	3.1
[26]	9.35
[27]	2.2

CNC(=O)c1cccc(-c2ccc3c(N4CCOC[C@@H]4C)nc(N4CCOC[C@@H]4C)nc3n2)c1 [AZD2014] (max concentration tested 10000 nM)
percent inhibition of viability [%]
Conditions	1 nM	10 nM	100 nM	1000 nM	10000 nM
[1]	7.61	7.66	23	61.5	81.5
[2]	5.65	6.16	19.9	34.6	35.5
[3]	0.74	5.96	9.04	27.7	27.3
[4]	8.6	17.6	50.9	66.7	73
[5]	-2.59	6.55	37.5	74.8	87.2
[6]	-8.07	-10.1	-19.9	-44.5	8.41
[7]	-6.11	7.01	7.49	28.2	29.1
[8]	19.5	24.3	46.2	65.3	73.2
[9]	-7.02	8.25	24.4	20.1	45.9
[10]	10.9	6.65	18.3	60.6	78.2
[11]	4.44	-1.39	29.1	57.6	86.6
[12]	5.51	16.6	22.9	45	60.5
[13]	8.26	7.2	12.9	48.3	87.9
[28]	1.08	8.53	26.5	39.1	53.6

Conditions	drug sensitivity score
[14]	10.8
[15]	14.4
[16]	8.12
[17]	5.08
[18]	20.4
[19]	18.6
[20]	0
[21]	5.3
[22]	21
[23]	9.03
[24]	13.5
[25]	14.5
[26]	12.5
[27]	11.2
